Assay results published in US9302999B2, “Substituted triazoles as herbicides” (E. I. DU PONT DE NEMOURS AND COMPANY, priority 2012, dated 2016).

Experiments:
Assay type in all cases: in vivo
[1] = tested on: barnyardgrass (Echinochloa crus-galli); assay: Test A pre-/postemergence: barnyardgrass
In short: (§1)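 Pre: directed soil spray after planting in loam + sand. Post: same formulation (non-phytotoxic solvent + surfactant) on 1–2-leaf plants, 2–10 cm. Greenhouse ~10 d; visual injury 0–100 vs untreated.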

[2] = tested on: winter wheat (Triticum aestivum); assay: Test C pre-/postemergence: winter wheat
In short: (§2)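 Preemergence on seeds in loam/sand, postemergence on 2–18 cm (1–4-leaf) plants in peat-based medium; compounds in non-phytotoxic solvent with surfactant. After 13–15 days in greenhouse, visual rating versus controls, 0 (no effect) to 100 (complete control).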

[3] = tested on: nutsedge, yellow (yellow nutsedge, Cyperus esculentus); assay: Test C pre-/postemergence: nutsedge, yellow
In short: as §2

[4] = tested on: velvetleaf (Abutilon theophrasti); assay: Test A pre-/postemergence: velvetleaf
In short: as §1

[5] = tested on: pigweed (Amaranthus retroflexus); assay: Test A pre-/postemergence: pigweed
In short: as §1

[6] = tested on: lambsquarters (Chenopodium album); assay: Test C pre-/postemergence: lambsquarters
In short: as §2

wild oat (Avena fatua) = assay: Test C pre-/postemergence: wild oat
In short: as §2

[7] = tested on: morningglory (Ipomoea coccinea); assay: Test C pre-/postemergence: morningglory
In short: as §2

[8] = tested on: blackgrass (Alopecurus myosuroides); assay: Test C pre-/postemergence: blackgrass
In short: as §2

corn (Zea mays) = assay: Test C pre-/postemergence: corn
In short: as §2

[9] = tested on: foxtail, giant (giant foxtail, Setaria faberii); assay: Test A pre-/postemergence: foxtail, giant
In short: as §1

[10] = tested on: chickweed (common chickweed, Stellaria media); assay: Test C postemergence: chickweed
In short: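 Crop and weed plants were grown in peat-vermiculite medium and treated postemergence at the 1- to 4-leaf stage (2-18 cm tall). After 13-15 days in a greenhouse, each species was rated visually against untreated controls on a 0-100 scale (0 no effect, 100 complete control).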

[11] = Postemergence, 125 g ai/ha, 0 to 100 scale, 0 is no effect, 100 is complete control
[12] = Postemergence, 500 g ai/ha, 0 to 100 scale, 0 is no effect, 100 is complete control
[13] = Preemergence, 125 g ai/ha, 0 to 100 scale where 0 is no effect and 100 is complete control
[14] = Preemergence, 500 g ai/ha, 0 to 100 scale (0 no effect, 100 complete control)
[15] = Postemergence, 31 g ai/ha, scale 0 to 100 (0 no effect, 100 complete control)
[16] = Postemergence, 62 g ai/ha, scale 0 to 100 (0 no effect, 100 complete control)
[17] = Postemergence, 125 g ai/ha, scale 0 to 100, 0 no effect, 100 complete control
[18] = Postemergence, 250 g ai/ha, scale 0 to 100 (0 no effect, 100 complete control)
[19] = Preemergence, 31 g ai/ha, scale 0 (no effect) to 100 (complete control)
[20] = Preemergence, 62 g ai/ha, scale of 0 to 100, 0 is no effect, 100 is complete control
[21] = Preemergence, 125 g ai/ha, scale 0 to 100, 0 no effect, 100 complete control
[22] = Preemergence, 250 g ai/ha, scale 0 to 100, 0 no effect, 100 complete control
[23] = Postemergence, 250 g ai/ha, scale 0 to 100

CCOc1nn(-c2ccc(F)cc2)nc1Cc1ccnc(C(F)F)c1 [Compound 195]
Plant response rating, Barnyardgrass [1, 11]: 90
Barnyardgrass plant response rating [1, 12]: 90
Plant response rating, Barnyardgrass [1, 13]: 90
Plant response rating, Barnyardgrass [1, 14]: 100
Plant response rating, Wheat [2, 15]: 10
Plant response rating, Wheat [2, 16]: 20
Plant response rating, Wheat [2, 17]: 25
Plant response rating, Wheat [2, 18]: 30
Plant response rating, Wheat [2, 19]: 0
Plant response rating, Wheat [2, 20]: 5
Plant response rating, Wheat [2, 21]: 5
Plant response rating, Wheat [2, 22]: 30
Plant response rating, Nutsedge, Yellow [3, 15]: 10
Plant response rating, Nutsedge, Yellow [3, 16]: 20
Plant response rating, Nutsedge, Yellow [3, 17]: 25
Plant response rating, Nutsedge, Yellow [3, 18]: 25
Plant response rating, Nutsedge, Yellow [3, 19]: 0
Plant response rating, Nutsedge, Yellow [3, 20]: 0
Plant response rating, Nutsedge, Yellow [3, 21]: 5
Plant response rating, Nutsedge, Yellow [3, 22]: 80
Plant response rating, Velvetleaf [4, 11]: 90
Velvetleaf plant response rating [4, 12]: 100
Plant response rating, Velvetleaf [4, 13]: 70
Plant response rating, Velvetleaf [4, 14]: 80
Plant response rating, Pigweed [5, 11]: 100
Pigweed plant response rating [5, 12]: 100
Plant response rating, Pigweed [5, 13]: 100
Plant response rating, Pigweed [5, 14]: 100
Plant response rating, Lambsquarters [6, 15]: 95
Plant response rating, Lambsquarters [6, 16]: 95
Plant response rating, Lambsquarters [6, 17]: 95
Plant response rating, Lambsquarters [6, 18]: 95
Plant response rating, Lambsquarters [6, 19]: 55
Plant response rating, Lambsquarters [6, 20]: 80
Plant response rating, Lambsquarters [6, 21]: 90
Plant response rating, Lambsquarters [6, 22]: 95
Plant response rating, Oat, Wild (wild oat (Avena fatua); [15]): 60
Plant response rating, Oat, Wild (wild oat (Avena fatua); [16]): 75
Plant response rating, Oat, Wild (wild oat (Avena fatua); [17]): 80
Plant response rating, Oat, Wild (wild oat (Avena fatua); [18]): 85
Plant response rating, Oat, Wild (wild oat (Avena fatua); [19]): 80
Plant response rating, Oat, Wild (wild oat (Avena fatua); [20]): 90
Plant response rating, Oat, Wild (wild oat (Avena fatua); [22]): 90
Plant response rating, Morningglory [7, 15]: 65
Plant response rating, Morningglory [7, 16]: 90
Plant response rating, Morningglory [7, 17]: 90
Plant response rating, Morningglory [7, 18]: 95
Plant response rating, Morningglory [7, 19]: 30
Plant response rating, Morningglory [7, 20]: 50
Plant response rating, Morningglory [7, 21]: 75
Plant response rating, Morningglory [7, 22]: 90
Plant response rating, Blackgrass [8, 15]: 45
Plant response rating, Blackgrass [8, 16]: 70
Plant response rating, Blackgrass [8, 17]: 80
Plant response rating, Blackgrass [8, 23]: 80
Plant response rating, Blackgrass [8, 19]: 90
Plant response rating, Blackgrass [8, 20]: 90
Plant response rating, Blackgrass [8, 21]: 90
Plant response rating, Blackgrass [8, 22]: 90
Plant response rating, Corn (corn (Zea mays); [15]): 60
Plant response rating, Corn (corn (Zea mays); [16]): 75
Plant response rating, Corn (corn (Zea mays); [23]): 80
Plant response rating, Corn (corn (Zea mays); [19]): 0
Plant response rating, Corn (corn (Zea mays); [20]): 5
Plant response rating, Corn (corn (Zea mays); [21]): 15
Plant response rating, Corn (corn (Zea mays); [22]): 35
Plant response rating, Foxtail, Giant [9, 11]: 90
Foxtail, Giant plant response rating [9, 12]: 90
Plant response rating, Foxtail, Giant [9, 13]: 100
Plant response rating, Foxtail, Giant [9, 14]: 100
Plant response rating, Chickweed ([10]; 31 g ai/ha, scale 0 to 100 (0 no effect, 100 complete control)): 95
Plant response rating, Chickweed ([10]; 62 g ai/ha, scale 0 to 100 (0 no effect, 100 complete control)): 95
Plant response rating, Chickweed ([10]; 125 g ai/ha, scale 0 to 100, 0 no effect, 100 complete control): 98
Plant response rating, Chickweed ([10]; 250 g ai/ha, scale 0 to 100): 98
